Details: 298.2 K

O=C(O)c1cccc([N+](=O)[O-])c1
Details	solubility (mole fraction)
in 1,4-dioxane	0.193
in 2-methyl-1-butanol	0.11
in 2-methyl-1-pentanol	0.134
in 2-pentanol	0.176
in THF	0.36
in dibutyl ether	0.0346
in diethyl ether	0.127
in diisopropyl ether	0.0591
in ethanol	0.175
in ethyl acetate	0.138
in isobutanol	0.113
in isopentanol	0.145
in isopropanol	0.17
in methanol	0.211
in methyl acetate	0.147
in n-butanol	0.146
in n-butyl acetate	0.108
in n-decanol	0.139
in n-heptanol	0.136
in n-hexanol	0.139
in n-octanol	0.144
in n-pentanol	0.143
in n-propanol	0.149
in propylene carbonate	0.0834
in sec-butanol	0.188
in tert-butanol	0.217

Reference: BigSolDB 2.1
